pIC50: −log10 of the molar value.
Target: GST-Xa-hAAK1 (Homo sapiens (Human), UniProt Q2M2I8)
Assay: AAK1 Kinase Assay
Format: biochemical
Conditions: bacterially expressed GST-Xa-hAAK1 3.5 nM; ATP 22 μM; fluoresceinated peptide substrate 1.5 μM; 3 hours at room temperature
Method: The assays were performed in U-bottom 384-well plates. […] The reactions were initiated by the combination of bacterially expressed, GST-Xa-hAAK1 with substrates and test compounds. The reactions were incubated at room temperature for 3 hours and terminated by adding 60 μl of 35 mM EDTA buffer to each sample. The reactions were analyzed on the Caliper LabChip 3000 (Caliper, Hopkinton, Mass.) by electrophoretic separation of the fluorescent substrate and phosphorylated product. […] Compounds were dissolved at 10 mM in dimethylsulfoxide (DMSO) and evaluated at eleven concentrations. IC50 values were derived by non-linear regression analysis.

Chain of GST-Xa-hAAK1 (Q2M2I8 whole entry): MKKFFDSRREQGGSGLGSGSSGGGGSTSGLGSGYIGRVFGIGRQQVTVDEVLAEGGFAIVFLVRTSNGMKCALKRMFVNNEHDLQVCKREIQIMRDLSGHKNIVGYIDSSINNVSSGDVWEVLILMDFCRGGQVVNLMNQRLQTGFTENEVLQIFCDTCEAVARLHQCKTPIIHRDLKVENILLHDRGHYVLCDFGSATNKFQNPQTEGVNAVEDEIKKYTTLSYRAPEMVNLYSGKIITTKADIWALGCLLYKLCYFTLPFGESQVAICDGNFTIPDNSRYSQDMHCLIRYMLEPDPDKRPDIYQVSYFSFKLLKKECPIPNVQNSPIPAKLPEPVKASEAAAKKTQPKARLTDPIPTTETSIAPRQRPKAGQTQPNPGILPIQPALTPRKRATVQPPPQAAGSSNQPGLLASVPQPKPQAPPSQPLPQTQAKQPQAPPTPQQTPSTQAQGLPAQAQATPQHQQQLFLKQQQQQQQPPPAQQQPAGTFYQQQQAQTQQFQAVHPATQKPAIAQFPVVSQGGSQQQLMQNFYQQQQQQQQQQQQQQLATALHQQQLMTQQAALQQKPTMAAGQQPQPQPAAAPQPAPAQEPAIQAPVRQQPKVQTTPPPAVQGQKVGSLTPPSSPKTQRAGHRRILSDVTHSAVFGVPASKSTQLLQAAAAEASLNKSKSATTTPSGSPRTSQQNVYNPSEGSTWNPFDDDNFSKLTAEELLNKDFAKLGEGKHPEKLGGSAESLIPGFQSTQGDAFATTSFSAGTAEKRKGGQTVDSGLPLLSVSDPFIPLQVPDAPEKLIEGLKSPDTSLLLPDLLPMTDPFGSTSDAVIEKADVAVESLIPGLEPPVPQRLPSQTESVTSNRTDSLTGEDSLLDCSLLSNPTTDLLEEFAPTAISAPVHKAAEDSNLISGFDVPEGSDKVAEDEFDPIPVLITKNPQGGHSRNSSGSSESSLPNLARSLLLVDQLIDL

Row | Structure (SMILES) | pIC50
1 | Cc1cc2c(cc1OC[C@@H](N)CC(C)C)COc1cnccc1-2 [Example 32, (S)-4-methyl-1-((9-methyl-6H-isochromeno[3,4-c]pyridin-8-yl)oxy)pentan-2-amine] | 8.49
2 | CCOC(=O)Nc1nc(Cl)c2c(c1Cl)-c1ccc(OC[C@@](C)(N)CC(C)C)cc1CO2 [Example 46, (S)-ethyl (8-((2-amino-2,4-dimethylpentyl)oxy)-1,4-dichloro-6H-isochromeno[3,4-c]pyridin-2-yl)carbamate] | 7.35
3 | CC(C)CC(C)(N)COc1ccc2c(c1)c(=O)n(C)c1cnccc21 (stereo not shown) [Example 7, 8-((2-amino-2,4-dimethylpentyl)oxy)-5-methylbenzo[c][1,7]naphthyridin-6(5H)-one] | 7.51
4 | [2H]C([2H])(Oc1ccc2c(c1)c(=O)n(C)c1c(C)nccc21)C(C)(N)CC(C)C (stereo not shown) [Example 13, 8-((2-amino-1,1-dideutero-2,4-dimethylpentyl)oxy)-4,5-dimethylbenzo[c][1,7]naphthyridin-6(5H)-one] | 6.93
5 | Cc1nccc2c3cc(Cl)c(OC[C@@](C)(N)CC(C)C)cc3c(=O)n(C(C)C)c12 [Example 25, (S)-8-((2-amino-2,4-dimethylpentyl)oxy)-9-chloro-5-isopropyl-4-methylbenzo[c][1,7]naphthyridin-6(5H)-one] | 6.64
6 | CCOC(=O)Nc1ncc2c(c1Cl)-c1ccc(OC[C@@](C)(N)CC(C)C)cc1CO2 [Example 47, (S)-ethyl (8-((2-amino-2,4-dimethylpentyl)oxy)-1-chloro-6H-isochromeno[3,4-c]pyridin-2-yl)carbamate] | 7.59
7 | Cc1nccc2c1[nH]c(=O)c1cc(OC[C@@](C)(N)CC(C)C)c(Cl)cc12 [Example 28, (S)-8-((2-amino-2,4-dimethylpentyl)oxy)-9-chloro-4-methylbenzo[c][1,7]naphthyridin-6(5H)-one] | 6.21
8 | [2H]C([2H])(Oc1cc2c(=O)n(CC)c3c(C)nccc3c2cc1Cl)C(C)(N)CC(C)C (stereo not shown) [Example 12, 8-((2-amino-1,1-dideutero-2,4-dimethylpentyl)oxy)-9-chloro-5-ethyl-4-methylbenzo[c][1,7]naphthyridin-6(5H)-one] | 7.52
9 | Cc1cc2c(cn1)OCc1cc(OC[C@@](C)(N)CC(C)C)ccc1-2 [Example 51, (S)-2,4-dimethyl-1-((2-methyl-6H-isochromeno[3,4-c]pyridin-8-yl)oxy)pentan-2-amine] | 6.92
10 | COC(=O)Nc1cc2c(cn1)OCc1c-2ccc(OC[C@@](C)(N)CC(C)C)c1Cl [Example 62, (S)-methyl (8-((2-amino-2,4-dimethylpentyl)oxy)-7-chloro-6H-isochromeno[3,4-c]pyridin-2-yl)carbamate] | 9.09
11 | [2H]C([2H])([2H])n1c(=O)c2cc(OC[C@@](C)(N)CC(C)C)ccc2c2ccnc(C)c21 [Example 23, (S)-8-((2-amino-2,4-dimethylpentyl)oxy)-4-methyl-5-(trideuteromethyl)benzo[c][1,7]naphthyridin-6(5H)-one] | 7.34
12 | COC(=O)Nc1cc2c(cn1)OCc1cc(OC[C@@H](N)CC(C)C)ccc1-2 [Example 34, (S)-methyl (8-((2-amino-4-methylpentyl)oxy)-6H-isochromeno[3,4-c]pyridin-2-yl)carbamate] | 8.42
13 | CCn1c(=O)c2cc(OC[C@@](C)(N)CC(C)C)c(Cl)cc2c2ccnc(C)c21 [Example 16, (S)-8-((2-amino-2,4-dimethylpentyl)oxy)-9-chloro-5-ethyl-4-methylbenzo[c][1,7]naphthyridin-6(5H)-one] | 7.62
14 | Cc1cc2c(cc1OC[C@@](C)(N)CC(C)C)c(=O)n(C)c1c(C)nccc21 [Example 26, (S)-8-((2-amino-2,4-dimethylpentyl)oxy)-4,5,9-trimethylbenzo[c][1,7]naphthyridin-6(5H)-one] | 8.27
15 | Cc1nccc2c3ccc(OC[C@@](C)(N)CC(C)C)c(Cl)c3c(=O)n(C)c12 [Example 15, (S)-8-((2-amino-2,4-dimethylpentyl)oxy)-7-chloro-4,5-dimethylbenzo[c][1,7]naphthyridin-6(5H)-one] | 7.23
16 | CC(C)C[C@](C)(N)COc1ccc2c(c1)COc1cnc(S(C)(=O)=O)cc1-2 [Example 59, (S)-2,4-dimethyl-1-((2-(methylsulfonyl)-6H-isochromeno[3,4-c]pyridin-8-yl)oxy)pentan-2-amine] | 6.74
17 | CC(C)C[C@](C)(N)COc1ccc2c(c1)COc1cnc(NS(C)(=O)=O)cc1-2 [Example 55, (S)—N-(8-((2-amino-2,4-dimethylpentyl)oxy)-6H-isochromeno[3,4-c]pyridin-2-yl)methanesulfonamide] | 6.91

Row | Structure (SMILES) | pIC50
18 | Cc1nccc2c3ccc(OCC(C)(N)CC(C)C)cc3c(=O)n(C)c12 (stereo not shown) [Example 9, 8-((2-amino-2,4-dimethylpentyl)oxy)-4,5-dimethylbenzo[c][1,7]naphthyridin-6(5H)-one] | 7.31
19 | Cc1cc2c3ccc(OC[C@@](C)(N)CC(C)C)c(Cl)c3c(=O)n(C)c2cn1 [Example 18, (S)-8-((2-amino-2,4-dimethylpentyl)oxy)-7-chloro-2,5-dimethylbenzo[c][1,7]naphthyridin-6(5H)-one] | 8.52
20 | Cc1cc2c3ccc(OC[C@@](C)(N)CC(C)C)cc3c(=O)n(C)c2cn1 [Example 14, (S)-8-((2-amino-2,4-dimethylpentyl)oxy)-2,5-dimethylbenzo[c][1,7]naphthyridin-6(5H)-one] | 8.09
21 | CCOC(=O)Nc1cc2c(cn1)OCc1cc(OC[C@](C)(N)CC(C)C)ccc1-2 [Example 40, (R)-ethyl (8-((2-amino-2,4-dimethylpentyl)oxy)-6H-isochromeno[3,4-c]pyridin-2-yl)carbamate] | 8.89
22 | CC(=O)Nc1cc2c(cn1)OCc1cc(OC[C@@](C)(N)CC(C)C)ccc1-2 [Example 37, (S)—N-(8-((2-amino-2,4-dimethylpentyl)oxy)-6H-isochromeno[3,4-c]pyridin-2-yl)acetamide] | 8.62
23 | Cc1nccc2c3cc(Cl)c(OC[C@@H](N)CC(C)C)cc3c(=O)n(C)c12 [Example 5, (S)-8-((2-amino-4-methylpentyl)oxy)-9-chloro-4,5-dimethylbenzo[c][1,7]naphthyridin-6(5H)-one] | 7.06
24 | CC(C)C[C@](C)(N)COc1ccc2c(c1)COc1cnc(NC(=O)OC(C)C)cc1-2 [Example 54, (S)-isopropyl (8-((2-amino-2,4-dimethylpentyl)oxy)-6H-isochromeno[3,4-c]pyridin-2-yl)carbamate] | 8.68
25 | CC(C)C[C@](C)(N)COc1ccc2c(c1Cl)COc1cnc(N)cc1-2 [Example 61, (S)-8-((2-amino-2,4-dimethylpentyl)oxy)-7-chloro-6H-isochromeno[3,4-c]pyridin-2-amine] | 9.39
26 | COC(=O)Nc1cc2c(cn1)OCc1cc(OCC(C)(N)CC(C)C)ccc1-2 (stereo not shown) [Example 39, methyl (8-((2-amino-2,4-dimethylpentyl)oxy)-6H-isochromeno[3,4-c]pyridin-2-yl)carbamate] | 8.09
27 | CC(C)CC(C)(N)COc1ccc2c(c1)COc1cnc(NCC(F)(F)F)cc1-2 (stereo not shown) [Example 42, 8-((2-amino-2,4-dimethylpentyl)oxy)-N-(2,2,2-trifluoroethyl)-6H-isochromeno[3,4-c]pyridin-2-amine] | 7.06
28 | Cc1nccc2c3ccc(OC[C@](C)(N)CC(C)C)cc3c(=O)n(C)c12 [Example 11, (R)-8-((2-amino-2,4-dimethylpentyl)oxy)-4,5-dimethylbenzo[c][1,7]naphthyridin-6(5H)-one] | 7.04
29 | CC(C)C[C@H](N)COc1ccc2c(c1)c(=O)n(C)c1cnccc21 [Example 2, (S)-8-((2-amino-4-methylpentyl)oxy)-5-methylbenzo[c][1,7]naphthyridin-6(5H)-one] | 7.43
30 | Cc1nccc2c1OCc1cc(OC[C@@](C)(N)CC(C)C)ccc1-2 [Example 50, (S)-2,4-dimethyl-1-((4-methyl-6H-isochromeno[3,4-c]pyridin-8-yl)oxy)pentan-2-amine] | 7.96
31 | Cc1cc2c(cc1OCC(N)CCC(F)(F)F)c(=O)n(C)c1cnccc21 (stereo not shown) [Example 6, 8-((2-amino-5,5,5-trifluoropentyl)oxy)-5,9-dimethylbenzo[c][1,7]naphthyridin-6(5H)-one] | 8.43
32 | Cc1nccc2c3cc(C#N)c(OC[C@@](C)(N)CC(C)C)cc3c(=O)n(C3CC3)c12 [Example 24, (S)-8-((2-amino-2,4-dimethylpentyl)oxy)-5-cyclopropyl-4-methyl-6-oxo-5,6-dihydrobenzo[c][1,7]naphthyridine-9-carbonitrile] | 7.16
33 | CC(C)C[C@H](N)COc1ccc2c(c1)COc1cnc(N)cc1-2 [Example 35, (S)-8-((2-amino-4-methylpentyl)oxy)-6H-isochromeno[3,4-c]pyridin-2-amine] | 7.96
34 | CCn1c(=O)c2cc(OC[C@@](C)(N)CC(C)C)ccc2c2ccnc(C)c21 [Example 19, (S)-8-((2-amino-2,4-dimethylpentyl)oxy)-5-ethyl-4-methylbenzo[c][1,7]naphthyridin-6(5H)-one] | 5.87

Reference: US10174044B2, “Fused pyridines as kinase inhibitors” (BRISTOL-MYERS SQUIBB COMPANY, priority 2015, dated 2019)
